Measurements from patent publication US9296725B2, “Heterocyclyl pyrimidine analogues as TYK2 inhibitors” (Cellzome Limited, priority 2012, dated 2016).
Where two headings read alike, the source gives them in different places.

What was measured:
TYK2 = biological target: T1, TYK2 (Homo sapiens, UniProt P29597); assay: Kinobeads assay, TYK2 (competition binding in mixed Molt4/Ramos cell lysate, dot blot detection)
T1 construct: endogenous in cells; host or cells: Molt4 (ATCC CRL-1582) and Ramos (ATCC CRL-1596), mixed lysate 1:2
T1 sequence (P29597 whole entry): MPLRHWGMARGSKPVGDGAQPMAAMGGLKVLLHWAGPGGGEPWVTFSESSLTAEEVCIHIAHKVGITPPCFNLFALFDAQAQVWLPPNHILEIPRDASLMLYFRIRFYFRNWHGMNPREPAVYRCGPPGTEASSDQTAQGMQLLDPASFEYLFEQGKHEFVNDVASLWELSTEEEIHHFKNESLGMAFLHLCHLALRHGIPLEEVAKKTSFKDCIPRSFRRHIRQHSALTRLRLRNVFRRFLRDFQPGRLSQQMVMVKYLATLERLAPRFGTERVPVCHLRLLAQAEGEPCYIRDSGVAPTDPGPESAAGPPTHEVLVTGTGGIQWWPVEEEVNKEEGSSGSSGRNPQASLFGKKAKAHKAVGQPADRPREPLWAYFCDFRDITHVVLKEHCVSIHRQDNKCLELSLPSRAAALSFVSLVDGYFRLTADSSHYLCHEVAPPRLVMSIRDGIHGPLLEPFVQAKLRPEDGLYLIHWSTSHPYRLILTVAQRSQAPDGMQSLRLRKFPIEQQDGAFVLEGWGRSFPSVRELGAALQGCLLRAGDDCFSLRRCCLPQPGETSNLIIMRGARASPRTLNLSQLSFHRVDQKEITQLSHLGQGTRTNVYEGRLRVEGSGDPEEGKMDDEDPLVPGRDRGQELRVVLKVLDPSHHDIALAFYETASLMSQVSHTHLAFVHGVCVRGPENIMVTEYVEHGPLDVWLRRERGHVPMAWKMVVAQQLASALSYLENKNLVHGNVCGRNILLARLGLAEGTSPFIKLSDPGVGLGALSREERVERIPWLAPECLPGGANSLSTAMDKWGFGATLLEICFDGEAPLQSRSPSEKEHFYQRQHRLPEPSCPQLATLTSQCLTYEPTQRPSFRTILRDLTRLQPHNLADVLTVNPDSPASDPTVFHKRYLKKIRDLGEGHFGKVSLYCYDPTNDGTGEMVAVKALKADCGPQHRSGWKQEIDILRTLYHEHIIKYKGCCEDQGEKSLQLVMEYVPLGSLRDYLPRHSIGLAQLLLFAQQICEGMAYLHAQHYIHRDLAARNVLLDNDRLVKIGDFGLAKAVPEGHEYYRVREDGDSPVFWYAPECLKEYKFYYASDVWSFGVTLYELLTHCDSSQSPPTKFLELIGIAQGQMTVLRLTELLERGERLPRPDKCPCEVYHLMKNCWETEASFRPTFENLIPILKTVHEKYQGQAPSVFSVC
Description: (§1) The compounds of the present invention as described in the previous examples were tested in a Kinobeads™ assay as described for ZAP-70 (WO-A 2007/137867). Briefly, test compounds (at various concentrations) and the affinity matrix with the immobilized aminopyrido-pyrimidine ligand 24 were added to cell lysate aliquots and allowed to bind to the proteins in 10 the lysate sample. After the incubation time the beads with captured proteins were separated from the lysate. Bound proteins were then eluted and the presence of TYK2 and JAK2 was detected and quantified using specific antibodies in a dot blot procedure and the Odyssey infrared detection system. Dose response curves for individual kinases were generated and IC50 values calculated. Kinobeads™ assays have been previously described (WO-A 2007/137867; WO-A 2006/134056).
(§2) The affinity matrix was washed two times with 15 mL of 1×DP buffer containing 0.2% NP40 (IGEPAL® CA-630, Sigma, #13021) and then resuspended in 1×DP buffer containing 0.2% NP40 (3% beads slurry). 5×DP buffer: 250 mM Tris-HCl pH 7.4, 25% Glycerol, 7.5 mM MgCl2, 750 mM NaCl, 5 mM Na3VO4; filter the 5×DP buffer through a 0.22 μm filter and store in aliquots at −80° C. The 5×DP buffer is diluted with H2O to 1×DP buffer containing 1 mM DTT and 25 mM NaF.
(§3) Stock solutions of test compounds were prepared in DMSO. In a 96 well plate 30 μL solution of diluted test compounds at 5 mM in DMSO were prepared. Starting with this solution a 1:3 dilution series (9 steps) was prepared. For control experiments (no test compound) a buffer containing 2% DMSO was used.
(§4) Molt4 cells (ATCC catalogue number CRL-1582) and Ramos cells (ATCC catalogue number CRL-1596) were grown in 1 L Spinner flasks (Integra Biosciences, #182101) in suspension in RPMI 1640 medium (Invitrogen, #21875-034) supplemented with 10% Fetal Bovine Serum (Invitrogen) at a density between 0.15×10^6 and 1.2×10^6 cells/mL. Cells were harvested by centrifugation, washed once with 1×PBS buffer (Invitrogen, #14190-094) and cell pellets were frozen in liquid nitrogen and subsequently stored at −80° C. Cells were homogenized in a Potter S homogenizer in lysis buffer: 50 mM Tris-HCl, 0.8% NP40, 5% glycerol, 150 mM NaCl, 1.5 mM MgCl2, 25 mM NaF, 1 mM sodium vanadate, 1 mM DTT, pH 7.5. One complete EDTA-free tablet (protease inhibitor cocktail, Roche Diagnostics, 1873580) per 25 mL buffer was added. The material was dounced 10 times using a mechanized POTTER S, transferred to 50 mL falcon tubes, incubated for 30 minutes on ice and spun down for 10 minutes at 20,000 g at 4° C. (10,000 rpm in Sorvall SLA600, precooled). The supernatant was transferred to an ultracentrifuge (UZ)-polycarbonate tube (Beckmann, 355654) and spun for 1 hour at 100.000 g at 4° C. (33.500 rpm in Ti50.2, precooled). The supernatant was transferred again to a fresh 50 mL falcon tube, the protein concentration was determined by a Bradford assay (BioRad) and samples containing 50 mg of protein per aliquot were prepared. The samples were immediately used for experiments or frozen in liquid nitrogen and stored frozen at −80° C.
(§5) Cell lysate (approximately 50 mg protein per plate) was thawed in a water bath at room temperature and then stored on ice. To the thawed cell lysate 1×DP 0.8% NP40 buffer containing protease inhibitors (1 tablet for 25 mL buffer; EDTA-free protease inhibitor cocktail; Roche Diagnostics 1873580) was added in order to reach a final protein concentration of 10 mg/mL total protein. The diluted cell lysate was stored on ice. Mixed Molt4/Ramos lysate was prepared by combining one volume of Molt4 lysate and two volumes of Ramos lysate (ratio 1:2).
(§6) To a 96 well filter plate (Multiscreen HTS, BV Filter Plates, Millipore #MSBVN1250) were added per well: 100 μL affinity matrix (3% beads slurry), 3 μL of compound solution, and 50 μL of diluted lysate. Plates were sealed and incubated for 3 hours in a cold room on a plate shaker (Heidolph tiramax 1000) at 750 rpm. […]

JAK2 = biological target: T2, JAK2 (Homo sapiens, UniProt O60674); assay: Kinobeads assay, JAK2 (competition binding in mixed Molt4/Ramos cell lysate, dot blot detection); conditions: read-out: JAK2 Band (Kinobeads assay potency, IC50)
T2 construct: endogenous in cells; host or cells: Molt4 (ATCC CRL-1582) and Ramos (ATCC CRL-1596), mixed lysate 1:2
T2 sequence (O60674 whole entry): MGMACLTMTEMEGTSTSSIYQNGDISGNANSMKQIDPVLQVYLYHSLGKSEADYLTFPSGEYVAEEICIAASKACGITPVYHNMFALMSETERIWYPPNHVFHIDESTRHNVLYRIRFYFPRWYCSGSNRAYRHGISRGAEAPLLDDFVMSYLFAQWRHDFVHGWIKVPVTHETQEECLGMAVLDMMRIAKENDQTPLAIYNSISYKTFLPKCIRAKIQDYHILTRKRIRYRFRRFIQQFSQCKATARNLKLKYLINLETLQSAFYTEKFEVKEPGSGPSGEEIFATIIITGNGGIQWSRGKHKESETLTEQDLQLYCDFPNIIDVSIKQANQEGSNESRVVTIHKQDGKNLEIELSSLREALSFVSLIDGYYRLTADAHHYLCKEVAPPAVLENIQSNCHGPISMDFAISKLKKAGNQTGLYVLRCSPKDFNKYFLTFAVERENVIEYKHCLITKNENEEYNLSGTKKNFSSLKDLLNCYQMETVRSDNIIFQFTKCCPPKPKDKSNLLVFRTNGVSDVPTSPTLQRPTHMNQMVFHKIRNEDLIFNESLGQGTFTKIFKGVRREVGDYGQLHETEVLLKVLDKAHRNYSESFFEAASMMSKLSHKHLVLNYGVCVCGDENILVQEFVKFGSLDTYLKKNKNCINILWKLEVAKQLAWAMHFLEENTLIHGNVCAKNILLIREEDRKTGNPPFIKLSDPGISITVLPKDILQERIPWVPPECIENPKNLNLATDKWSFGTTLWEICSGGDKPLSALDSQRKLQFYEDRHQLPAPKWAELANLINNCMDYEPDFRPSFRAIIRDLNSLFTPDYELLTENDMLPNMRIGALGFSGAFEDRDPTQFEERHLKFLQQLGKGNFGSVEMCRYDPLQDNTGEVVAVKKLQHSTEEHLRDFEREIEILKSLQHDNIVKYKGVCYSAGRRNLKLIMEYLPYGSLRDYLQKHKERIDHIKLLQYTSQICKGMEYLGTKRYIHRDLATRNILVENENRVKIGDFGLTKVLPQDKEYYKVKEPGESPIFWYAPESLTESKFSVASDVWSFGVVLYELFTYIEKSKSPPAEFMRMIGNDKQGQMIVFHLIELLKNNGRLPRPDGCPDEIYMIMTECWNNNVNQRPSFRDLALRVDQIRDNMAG
Description: as §1, §2, §3, §4, §5, §6

[1] = Kinobeads assay, Molt4/Ramos lysate, read-out: TYK2 Band (Kinobeads assay potency, IC50)

Row | IC50 (TYK2; [1]) [nM] | IC50 (JAK2) [nM] | IC50 (TYK2; read-out: TYK2 IC50) [nM] | SMILES
1 | 10 to 100 | > 10000 | – | O=C(Cn1cc(Nc2ncc(F)c(NCc3cccc(OC(F)F)c3)n2)cn1)NC1CC1 [Example I-46]
2 | 10 to 100 | > 10000 | – | COc1ccc(F)c(CNc2nc(Nc3cnn(CC(=O)OC(C)C)c3)ncc2F)c1F [Example I-47]
3 | ≤ 10 | 1000 to 10000 | – | COc1ccc(F)c(CNc2nc(Nc3cnn(CC(=O)NC(C)C)c3)ncc2F)c1F [Example I-48]
4 | 10 to 100 | 1000 to 10000 | – | O=C(Cn1cc(Nc2ncc(F)c(NCc3c(Cl)cccc3Cl)n2)cn1)N1CCOCC1 [Example I-49]
5 | 10 to 100 | 1000 to 10000 | < 100 | CC(C)NC(=O)Cn1cc(Nc2nccc(NCc3c(F)cc(F)cc3F)n2)cn1 [Example I-50]
6 | 10 to 100 | > 10000 | – | CC(C)(C)NC(=O)Cn1cc(Nc2nccc(NCc3c(F)cc(F)cc3F)n2)cn1 [Example I-51]
7 | 10 to 100 | 1000 to 10000 | – | C[C@H]1COCCN1C(=O)Cn1cc(Nc2nccc(NCc3c(F)cc(F)cc3F)n2)cn1 [Example I-52]
8 | 10 to 100 | 1000 to 10000 | – | CCOC(=O)Cn1cc(Nc2ncc(F)c(NCc3c(F)ccc(OC)c3F)n2)cn1 [Example I-53]
9 | 10 to 100 | 1000 to 10000 | – | CCOC(=O)Cn1cc(Nc2ncc(F)c(NCc3c(F)cc(F)cc3F)n2)cn1 [Example I-54, Ethyl 2-(4-((5-fluoro-4-((2,4,6-trifluorobenzyl)amino)pyrimidin-2-yl)amino)-1H-pyrazol-1-yl)acetate]
10 | 10 to 100 | 1000 to 10000 | – | Cn1cc(Nc2nccc(NCc3c(F)cccc3Cl)n2)cn1 [Example I-55]
11 | 10 to 100 | > 10000 | – | CC(C)N(C)C(=O)Cn1cc(Nc2ncc(F)c(NCc3cccc(OC(F)F)c3)n2)cn1 [Example I-56]
12 | ≤ 10 | 1000 to 10000 | – | COc1ccc(F)c(CNc2nc(Nc3cnn(CC(=O)N(C)C(C)C)c3)ncc2F)c1F [Example I-57]
13 | 10 to 100 | > 10000 | – | CCC(CC)NC(=O)Cn1cc(Nc2ncc(F)c(NCc3c(F)cc(F)cc3F)n2)cn1 [Example I-58]
14 | ≤ 10 | 1000 to 10000 | – | CC(C)N(C)C(=O)Cn1cc(Nc2ncc(F)c(NCc3c(F)cc(F)cc3F)n2)cn1 [Example I-59]
15 | 10 to 100 | 100 to 1000 | – | Cn1cc(Nc2nccc(NCc3c(Cl)ccc(Cl)c3F)n2)cn1 [Example I-60]
16 | 10 to 100 | 100 to 1000 | – | COc1ccc(Cl)c(CNc2ccnc(Nc3cnn(C)c3)n2)c1F [Example I-61]
17 | 10 to 100 | > 10000 | < 100 | CC(C)NC(=O)Cn1cc(Nc2nccc(NCc3c(F)cccc3F)n2)cn1 [Example I-62]
18 | ≤ 10 | 1000 to 10000 | – | CC(C)NC(=O)Cn1cc(Nc2nccc(NCc3c(F)ccc(F)c3F)n2)cn1 [Example I-63]
19 | 10 to 100 | > 10000 | – | COc1cc(F)c(CNc2ccnc(Nc3cnn(CC(=O)NC(C)C)c3)n2)c(F)c1 [Example I-64]
20 | 10 to 100 | 1000 to 10000 | < 100 | COc1ccc(F)c(CNc2ccnc(Nc3cnn(CC(=O)NC(C)C)c3)n2)c1F [Example I-65]
21 | ≤ 10 | 1000 to 10000 | – | CC(C)NC(=O)Cn1cc(Nc2ncc(F)c(NCc3c(F)cccc3F)n2)cn1 [Example I-66]
22 | 10 to 100 | > 10000 | < 100 | CC(C)NC(=O)Cn1cc(Nc2nccc(NCc3cccc(OC(F)F)c3)n2)cn1 [Example I-67]
23 | 10 to 100 | 100 to 1000 | – | Cn1cc(Nc2nccc(NCc3c(Cl)ccc(F)c3F)n2)cn1 [Example I-68]
24 | 10 to 100 | > 10000 | – | COc1cc(F)c(CNc2nc(Nc3cnn(CC(=O)NC(C)C)c3)ncc2F)c(F)c1 [Example I-70]

Row | IC50 (TYK2; [1]) [nM] | IC50 (JAK2) [nM] | IC50 (TYK2; read-out: TYK2 IC50) [nM] | SMILES
25 | 10 to 100 | > 10000 | – | COC[C@H](C)NC(=O)Cn1cc(Nc2ncc(F)c(NCc3c(F)cc(F)cc3F)n2)cn1 [Example I-71]
26 | 10 to 100 | 100 to 1000 | – | CS(=O)(=O)c1ccc(F)cc1CNc1nc(Nc2cn[nH]c2)ncc1Cl [Example I-72]
27 | ≤ 10 | 1000 to 10000 | – | C[C@H]1COCCN1C(=O)Cn1cc(Nc2ncc(F)c(NCc3c(F)cc(F)cc3F)n2)cn1 [Example I-73]
28 | 10 to 100 | 100 to 1000 | – | CS(=O)(=O)c1ccc(F)cc1CNc1nc(Nc2cnn(CC(=O)NC3CC3)c2)ncc1Cl [Example I-74]
29 | ≤ 10 | > 10000 | – | C[C@@H](CO)NC(=O)Cn1cc(Nc2nccc(NCc3c(F)cc(F)cc3F)n2)cn1 [Example I-75]
30 | 10 to 100 | > 10000 | – | CC(C)NC(=O)Cn1cc(Nc2nccc(NCc3c(Cl)cccc3Cl)n2)cn1 [Example I-76]
31 | ≤ 10 | 1000 to 10000 | – | CC(C)NC(=O)Cn1cc(Nc2nccc(NCc3c(F)cccc3Cl)n2)cn1 [Example I-77]
32 | ≤ 10 | 100 to 1000 | – | CC(C)NC(=O)Cn1cc(Nc2nccc(NCc3c(Cl)ccc(Cl)c3F)n2)cn1 [Example I-78]
33 | ≤ 10 | 1000 to 10000 | – | COc1ccc(Cl)c(CNc2ccnc(Nc3cnn(CC(=O)NC(C)C)c3)n2)c1F [Example I-79]
34 | 10 to 100 | 1000 to 10000 | – | O=C(Cn1cc(Nc2nccc(NCc3c(F)cc(F)cc3F)n2)cn1)NC1CC1 [Example I-80]
35 | ≤ 10 | 100 to 1000 | – | COc1ccc(Cl)c(CNc2nc(Nc3cnn(CC(=O)N4CCOCC4)c3)ncc2F)c1F [Example I-81]
36 | 10 to 100 | 100 to 1000 | – | CC(C)NC(=O)Cn1cc(Nc2ncc(F)c(NCc3c(Cl)ccc(Cl)c3F)n2)cn1 [Example I-82]
37 | ≤ 10 | 100 to 1000 | – | COc1ccc(Cl)c(CNc2nc(Nc3cnn(CC(=O)NC(C)C)c3)ncc2F)c1F [Example I-84]
38 | 10 to 100 | 100 to 1000 | – | COc1ccc(Cl)c(CNc2nc(Nc3cnn(C)c3)ncc2F)c1F [Example I-85]
39 | 10 to 100 | > 10000 | – | O=C(Cn1cc(Nc2nccc(NCc3c(F)cc(F)cc3F)n2)cn1)NCC(F)(F)F [Example I-86]
40 | 10 to 100 | 100 to 1000 | – | Cc1cnc(Nc2cnn(CC(F)F)c2)nc1NCc1c(F)ccc(F)c1F [Example I-87]
41 | 10 to 100 | 100 to 1000 | – | COc1ccc(S(C)(=O)=O)cc1CNc1nc(Nc2cnn(CCO)c2)ncc1F [Example I-88]
42 | 10 to 100 | 1000 to 10000 | – | O=C(Cn1cc(Nc2nccc(NCc3c(F)cc(F)cc3F)n2)cn1)NCCO [Example I-89]
43 | 10 to 100 | 1000 to 10000 | – | O=C(Cn1cc(Nc2nccc(NCc3c(F)cc(F)cc3F)n2)cn1)NCCF [Example I-90]
44 | 10 to 100 | > 10000 | – | O=C(Cn1cc(Nc2nccc(NCc3c(F)cc(F)cc3F)n2)cn1)NC1CC1(F)F (centres unmarked) [Example I-91]
45 | 10 to 100 | 1000 to 10000 | – | O=C(Cn1cc(Nc2nccc(NCc3c(F)cc(F)cc3F)n2)cn1)NCC(F)F [Example I-92]
46 | 10 to 100 | 1000 to 10000 | – | CC(C)NC(=O)Cn1cc(Nc2nccc(NCc3c(Cl)ccc(F)c3F)n2)cn1 [Example I-93]
47 | 10 to 100 | 1000 to 10000 | – | CC(C)NC(=O)Cn1cc(Nc2nccc(NCc3c(F)cc(F)cc3Cl)n2)cn1 [Example I-94]
